Data on 2 molecules can be found in patent publication US5164400A, “Pyrroloquinoline compounds” (Fujisawa Pharmaceutical Co., Ltd., priority 1989, dated 1992).

Test [1] relates to Sterol Synthesis. The test can be described thus: Assay for Sterol Synthesis in Rats (in vivo). The arrangement: species or system Male SD rats. Conditions: dose 10.0 mg/kg, oral intubation, [1-^14 C] acetate i.p. 1 hour after compound, blood after 50 minutes. As to the method: (2) Test 2 [Assay for Sterol Synthesis in Rats (in vivo)]
Male SD rats are administered the test compound by oral intubation. One hour after compound administration, the rats are injected intraperitoneally with sodium [1-^14 C] acetate at 3.7 MBq/kg (=100 μCi/kg). After 50 minutes, 2.5 ml of blood samples are taken by cardiac puncture under short-term ether anesthesia. The plasma, obtained by centrifugation, is hydrolyzed and nonsaponifiable lipids are extracted with the petroleum ether. Sterols are isolated from these extracts as digitonide, dissolved in 1ml of methanol and the radioactivity is counted.

Test [2] addresses T1, rat liver 3-Hydroxy-3-methylglutary-Coenzyme A Reductase (Rattus norvegicus, UniProt P51639).
T1 construct: from tissue; host or cells: rat liver microsomes (solubilized, purified through second ammonium sulfate precipitation)
T1 sequence (P51639 1-887): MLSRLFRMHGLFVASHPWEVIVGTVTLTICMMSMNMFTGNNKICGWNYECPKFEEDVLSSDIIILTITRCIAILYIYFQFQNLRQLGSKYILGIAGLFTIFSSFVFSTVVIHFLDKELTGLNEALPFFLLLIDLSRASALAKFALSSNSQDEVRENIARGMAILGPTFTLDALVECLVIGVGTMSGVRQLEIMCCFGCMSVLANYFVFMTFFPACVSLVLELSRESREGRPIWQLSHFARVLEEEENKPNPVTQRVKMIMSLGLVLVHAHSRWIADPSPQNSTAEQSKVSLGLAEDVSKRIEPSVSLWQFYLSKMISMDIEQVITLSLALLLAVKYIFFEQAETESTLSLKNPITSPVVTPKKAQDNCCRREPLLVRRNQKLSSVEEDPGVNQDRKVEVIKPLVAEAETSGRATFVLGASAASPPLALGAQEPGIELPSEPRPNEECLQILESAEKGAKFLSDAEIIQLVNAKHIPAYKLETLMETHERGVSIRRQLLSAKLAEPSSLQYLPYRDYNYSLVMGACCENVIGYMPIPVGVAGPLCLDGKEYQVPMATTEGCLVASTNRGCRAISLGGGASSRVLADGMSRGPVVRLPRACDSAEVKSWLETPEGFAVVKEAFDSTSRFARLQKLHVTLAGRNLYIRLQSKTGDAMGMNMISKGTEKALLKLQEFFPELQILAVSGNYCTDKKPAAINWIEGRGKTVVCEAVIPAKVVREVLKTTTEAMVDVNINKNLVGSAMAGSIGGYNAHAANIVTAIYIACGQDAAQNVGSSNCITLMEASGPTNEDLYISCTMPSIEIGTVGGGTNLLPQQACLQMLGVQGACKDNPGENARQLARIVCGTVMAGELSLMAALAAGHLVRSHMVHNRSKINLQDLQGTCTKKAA
The test can be described thus: Assay for rat liver 3-Hydroxy-3-methylglutary-Coenzyme A Reductase Activity (in vitro). It is filed as biochemical. Conditions: enzyme solubilized from rat liver microsomes, pH 7.4, 37° C., 20 minutes. As to the method: (1) Test 1 [Assay for rat liver 3-Hydroxy-3-methylglutary-Coenzyme A Reductase Activity (in vitro)]
Five μl or an enzyme solution, solubilized from rat liver microsomes and purified through the second ammonium sulfate precipitation step, is added to 35 μl of a reaction mixture containing 1.11 kBg(=0.03 μCi) or 3-hydroxy-3-metyhl [3-^14 C] glutary coenzyme A, 100 mM potassium phosphate buffer, pH 7.4, 10 mM ethylenediaminetetraacetic acid (EDTA), 10 mM dithiothreitol with or without the graded concentrations of the test compound. The reaction is started by addition of 10 μl of 25 mM β-nicotinamide adenine dinucleotide phosphate, reduced form (NADPH). The mixture is incubated at 37° C. for 20 minutes. The reaction is terminated by addition of 10 μl of 2N hydrochloric acid. After an additional incubation for 15 minutes at 37° C., a 20 μl aliquot of the mixture is applied to a Silica Gel 60 F-254 plate (made by Merck & Co., Inc.). The chromatograms are developed in benzene/acetone (1:1). Sections of the thin layer plates where the mevalonolactone is located are scraped and the radioactivity are counted.
(In general: Microsomes from liver hold many membrane-bound enzymes, among them those of drug oxidation.)

Usually IC50 stands for the midpoint of a concentration-inhibition curve. `COc1cc(F)ccc1-c1c(/C=C/[C@@H](O)C[C@@H](O)CC(=O)O)n2c3c(cccc13)CCC2(C)C` (relative stereo) [Compound A]: the “Inhibition (%)” value in test [1] is 95.7%. In addition, in test [2], 53.5 nM corresponded to half-maximal inhibition (IC50).
Molecule `COc1cc(F)ccc1-c1c(/C=C/C(O)CC(O)CC(=O)O)n2c3c(cccc13)CCC2(C)C` (single isomer, unassigned) [Compound B, sodium (+)-erythro-(E)-7-[5,6-dihydro-4,4-dimethyl-1-(4-fluoro-2-methoxyphenyl)-4H-pyrrolo[3,2,1-ij]quinolin-2-yl]-3,5-dihydroxyhept-6-enoate] had an IC50 in test [2] of 25.7 nM.
